The test system of data set [1] is mice. In words: Ethanol-induced impairment of context-dependent fear conditioning. The class given is in vivo. An excerpt: (§1) The principle of Pavlovian fear conditioning is as follows. During the training procedure mice are exposed to a novel context (context 1), consisting of an observation chamber with defined lightning, odor, background noise and geometry. After exploring this novel environment for 180 s the animals are exposed to a tone for 30 s followed by a mild electric foot shock for 2 s. On the basis of associative learning mice display aversive freezing behavior during a memory test consisting of re-expose to the conditioning context 24 h after the training. […] Tone-dependent fear memories can be analyzed by presenting the tone in context 2. Freezing is an inborn behavior that rodents express in threatening situations. It is defined as the complete absence of movement, except respiration and heartbeat. […] Therefore, freezing behavior is commonly used to quantify the amount of learning.

Data set [2] relates to CK-p25 mice. In words: p25-mediated cognitive decline, fear conditioning in CK-p25 mice. The class given is in vivo. Particulars: p25 induced for 5 weeks, icv. 5 μg/mouse 2-3×/week, vs. vehicle.
From the text: as §1

Data set [3] concerns mice. In words: Context- and tone-dependent fear conditioning, intra-hippocampal (i.h.) injection. The class given is in vivo. Particulars: vs. vehicle. An excerpt: The principle of Pavlovian fear conditioning is as follows. During the training procedure mice are exposed to a novel context (context 1), consisting of an observation chamber with defined lightning, odor, background noise and geometry. After exploring this novel environment for 180 s the animals are exposed to a tone for 30 s followed by a mild electric foot shock for 2 s. On the basis of associative learning mice display aversive freezing behavior during a memory test consisting of re-expose to the conditioning context 24 h after the training. […] Tone-dependent fear memories can be analyzed by presenting the tone in context 2. Freezing is an inborn behavior that rodents express in threatening situations. It is defined as the complete absence of movement, except respiration and heartbeat. Whereas mice display no freezing behavior during training, a significant increase of freezing behavior is observed upon re-exposure to the conditioned context only. Therefore, freezing behavior is commonly used to quantify the amount of learning. Context-dependent fear conditioning requires the hippocampus whereas tone-dependent fear conditioning relies on an intact amygdala (Kim and Fanselow, 1992).

Data set [4] concerns the target T1, Sirt1 deacetylase (Homo sapiens, UniProt Q96EB6).
T1 sequence (Q96EB6 1-747): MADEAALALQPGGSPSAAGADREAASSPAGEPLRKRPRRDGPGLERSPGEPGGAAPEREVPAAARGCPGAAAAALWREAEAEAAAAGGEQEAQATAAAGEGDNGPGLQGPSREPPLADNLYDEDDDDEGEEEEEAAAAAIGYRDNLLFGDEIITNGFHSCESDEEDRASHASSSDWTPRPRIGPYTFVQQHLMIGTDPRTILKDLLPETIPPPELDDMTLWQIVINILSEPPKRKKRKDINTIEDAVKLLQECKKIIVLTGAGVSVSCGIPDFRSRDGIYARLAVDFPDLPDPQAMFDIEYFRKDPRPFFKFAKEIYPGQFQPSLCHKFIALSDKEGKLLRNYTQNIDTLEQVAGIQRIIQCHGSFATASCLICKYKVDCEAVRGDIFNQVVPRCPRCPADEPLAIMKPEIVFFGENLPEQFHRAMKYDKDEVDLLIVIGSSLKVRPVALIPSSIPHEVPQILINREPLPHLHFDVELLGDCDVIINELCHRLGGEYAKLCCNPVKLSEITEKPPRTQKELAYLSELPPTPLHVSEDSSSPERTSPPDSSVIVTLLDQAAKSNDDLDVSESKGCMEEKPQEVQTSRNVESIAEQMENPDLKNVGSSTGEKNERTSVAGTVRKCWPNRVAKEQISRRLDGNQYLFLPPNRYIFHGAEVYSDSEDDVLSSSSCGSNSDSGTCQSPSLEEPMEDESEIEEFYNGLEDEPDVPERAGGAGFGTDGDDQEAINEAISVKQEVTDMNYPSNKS
Particulars: Howitz et al., 2003; Wood et al., 2004; cited from earlier work.

In data set [5] the test system is C57BL/6J mice. In words: Context- and tone-dependent Pavlovian fear conditioning, icv. injection. The class given is in vivo. The conditions noted are these: vs. vehicle. An excerpt:
A fundamental type of learning is associative learning that can be analyzed in rodents using the pavlovian fear conditioning paradigm (Fendt and Fanselow, 1999; Fischer et al., 2003). As fear conditioning is a robust and commonly used method to analyze learning and allows to delineate the involvement of distinct brain structures in the learning process, we choose this paradigm to investigate the effect of reveratrol on learning. The principle of Pavlovian fear conditioning is as follows. During the training procedure mice are exposed to a novel context (context 1), consisting of an observation chamber with defined lightning, odor, background noise and geometry. After exploring this novel environment for 180 s the animals are exposed to a tone for 30 s followed by a mild electric foot shock for 2 s. On the basis of associative learning mice display aversive freezing behavior during a memory test consisting of re-expose to the conditioning context 24 h after the training. […] Tone-dependent fear memories can be analyzed by presenting the tone in context 2. Freezing is an inborn behavior that rodents express in threatening situations. It is defined as the complete absence of movement, except respiration and heartbeat. Whereas mice display no freezing behavior during training, a significant increase of freezing behavior is observed upon re-exposure to the conditioned context only. Therefore, freezing behavior is commonly used to quantify the amount of learning. C57BL/6J mice were anesthetized and microcannula (PlasticOne; AP −0 mm, lateral 1 mm, depth 2 mm) were implanted into the lateral brain ventricles (icv). […] The animals were trained by context- and tone-dependent fear conditioning 24 h after the last icv. injection and memory retention was analyzed the following day (see FIG. 1A). […] The mice were tested for memory retention 24 h later by re-exposure to the conditioning context.

[6] abbreviates: icv. 5 μg/mouse for 7 consecutive days, training 24 h after last injection, memory test the following day.
[7] abbreviates: single icv. injection 5 μg/mouse immediately after training, test 24 h later.

The text below walks through data of patent US9241916B2, “Cognitive performance with sirtuin activators” (President and Fellows of Harvard College, priority 2005, dated 2016).

Entries after “also recorded” stand apart in the source; their conditions may differ.

Regarding `CCO` [ethanol], the “freezing behavior during the context-dependent memory test (impairment by ethanol)” value in data set [1] (ip. 33% ethanol/PBS immediately after training) was “impaired freezing behavior; also recorded: severe impaired freezing”.
`Oc1ccc(C=Cc2cc(O)cc(O)c2)cc1` [resveratrol, 3,5,4′-tri-hydroxystilbene]: in data set [2], the “freezing behavior, memory retention 24 h after fear conditioning” value is recorded as “significantly enhanced”. The “freezing behavior during the context-dependent memory test” value in data set [3] (i.h. 5 μg/mouse 4 h after the training) is reported as “significantly enhanced freezing behavior”; in data set [5] (setting [6]), “significantly increased freezing behavior”; in data set [5] (setting [7]), “significantly increased freezing behavior; also recorded: significantly enhanced freezing”. Further, the “freezing during the tone-dependent memory test” value in data set [3] (i.h. 5 μg/mouse immediately or 4 h after the training) is recorded as “not different among groups”. Besides, the “freezing behavior during the context-dependent memory test (prevention of ethanol-induced impairment)” value in data set [1] (ip. 30 mg/kg resveratrol in 33% ethanol/PBS immediately after training, compared with PBS and ethanol groups, 30 mg/kg) is listed as “performed indistinguishable to mice injected only with PBS; also recorded: attenuated this effect”. Besides, the “agonism of the Sirt1 deacetylase” value in data set [4] was “potent agonist”. The “freezing behavior during the tone-dependent memory test” value in data set [5] (setting [6]) and in data set [5] (setting [7]) was “significantly increased freezing behavior” throughout.
